Experimental data reported in patent publication USRE49735E1 (BRISTOL-MYERS SQUIBB COMPANY, priority 2010, dated 2023).
pEC50: −log10 of the molar value. Several values for one entry are separate records, joined by “and”; a condition that tells them apart may be missing. Equal entries are not always repeated.

molecular target: human mGluR5A (Homo sapiens, UniProt P41594); assay: mGluR5 FLIPR Assay; format: cell-based; conditions: positive modulator activity; HEK293 (ZF) cells with human mGluR5A and rat GLAST; Ca++ response to ~EC10 glutamate
Sequence (P41594 21-1180 isoform P41594-2): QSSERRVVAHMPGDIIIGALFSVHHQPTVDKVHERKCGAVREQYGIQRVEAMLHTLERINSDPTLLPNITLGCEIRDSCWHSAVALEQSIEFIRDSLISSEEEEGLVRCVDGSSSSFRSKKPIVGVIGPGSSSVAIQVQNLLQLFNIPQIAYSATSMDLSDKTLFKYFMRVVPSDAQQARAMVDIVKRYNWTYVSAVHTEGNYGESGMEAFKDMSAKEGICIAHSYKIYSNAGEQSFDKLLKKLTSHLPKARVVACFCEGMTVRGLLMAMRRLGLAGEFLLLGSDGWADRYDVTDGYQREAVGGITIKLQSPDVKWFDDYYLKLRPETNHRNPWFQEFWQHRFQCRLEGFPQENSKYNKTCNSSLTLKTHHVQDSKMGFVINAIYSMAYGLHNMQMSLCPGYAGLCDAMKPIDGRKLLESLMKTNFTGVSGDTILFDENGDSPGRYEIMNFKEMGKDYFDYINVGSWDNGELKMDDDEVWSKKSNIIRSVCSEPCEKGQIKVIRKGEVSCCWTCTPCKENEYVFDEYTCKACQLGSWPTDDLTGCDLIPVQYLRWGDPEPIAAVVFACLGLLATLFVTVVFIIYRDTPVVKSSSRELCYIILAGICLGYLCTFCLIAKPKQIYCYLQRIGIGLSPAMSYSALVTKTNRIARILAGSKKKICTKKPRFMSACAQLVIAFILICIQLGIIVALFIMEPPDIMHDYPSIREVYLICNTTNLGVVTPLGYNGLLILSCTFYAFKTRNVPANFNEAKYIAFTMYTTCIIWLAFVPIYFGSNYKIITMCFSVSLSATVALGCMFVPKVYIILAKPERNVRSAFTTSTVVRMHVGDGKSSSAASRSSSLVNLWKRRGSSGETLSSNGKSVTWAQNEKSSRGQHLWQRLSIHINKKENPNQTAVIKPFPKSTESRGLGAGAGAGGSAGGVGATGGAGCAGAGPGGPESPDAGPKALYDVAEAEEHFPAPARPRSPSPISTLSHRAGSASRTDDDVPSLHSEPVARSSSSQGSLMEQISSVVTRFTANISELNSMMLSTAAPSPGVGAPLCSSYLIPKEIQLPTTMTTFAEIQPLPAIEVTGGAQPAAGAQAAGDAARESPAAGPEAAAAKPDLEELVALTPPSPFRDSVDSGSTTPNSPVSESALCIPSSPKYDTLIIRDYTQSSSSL
Procedure: HEK293 (ZF) cells stably transfected with human mGluR5A (pIRES neo) and the rat glutamate-aspartate transporter (GLAST; pIRES puro) are grown in a monolayer culture at 37° C. in 5% CO2 and fed with Minimum Essential Medium (MEM) supplemented with 10% dialysed fetal bovine serum. 24 hours prior to assay, cells are enzymatically dissociated from the culture flask (Trypsin, 0.25%), spun down (1000 rpm, 3 min), resuspended, and plated on Greiner black clear bottomed PDL-coated 384-well plates at a density of 30 thousand cells/well. […] Plates are incubated in dye at 37° C. in 5% CO2 for 60 minutes prior to delivery of test compounds in assay buffer. Test compounds are incubated with cells in the presence of dye for 10 minutes prior to being read on the FLIPR platform (Molecular Devices). A Ca^++ signal is induced in the assay plates via the delivery of an ˜EC10 concentration of the endogenous agonist 1-glutamate; images are acquired at 1 Hz for 100 seconds post-delivery of agonist stimulus. Positive modulator activity (i.e. the ability of test compounds to increase the Ca^++ response to a sub-maximal concentration of agonist) is normalized to a saturating concentration of a known mGluR5 PAM run in each assay plate. An EC50 concentration of test compounds is derived from 4-parameter logistic curve fits of transformed fluoresence data via proprietary software suite.

Row | Structure (SMILES) | pEC50
1 | Cc1cccc([C@@H]2OC(=O)N[C@@H]2c2cccc(C#Cc3ccccc3)c2)c1 (racemic) [Example 98, cis-4-(3-(phenylethynyl)phenyl)-5-m-tolyloxazolidin-2-one] | < 6.00
2 | Cc1cccc([C@@H]2OC(=O)N[C@H]2c2cccc(C#Cc3ccccc3)c2)c1 (racemic) [Example 99, trans-4-(3-(phenylethynyl)phenyl)-5-m-tolyloxazolidin-2-one] | > 7.00
3 | Cc1ccc([C@@H]2OC(=O)N[C@H]2c2cccc(C#Cc3ccccc3)c2)cc1C (racemic) [Example 100, Trans-5-(3,4-dimethylphenyl)-4-(3-(phenylethynyl)phenyl)oxazolidin-2-one] | 6.00 to 7.00
4 | O=C1N[C@@H](c2cccc(C#Cc3ccccc3)c2)[C@H](c2cccs2)O1 (racemic) [Example 103, trans-4-(3-(phenylethynyl)phenyl)-5-(thiophen-2-yl)oxazolidin-2-one] | > 7.00
5 | Cc1ccc([C@@H]2OC(=O)N[C@H]2c2cccc(C#Cc3ccccc3)c2)cc1 (racemic) [Example 106, (±)-(phenylethynyl)phenyl)-5-p-tolyloxazolidin-2-one] | > 7.00
6 | O=C1N[C@H](c2cccc(C#Cc3ccccc3)c2)[C@@H](c2cccc(F)c2)O1 (racemic) [Example 111, Trans-5-(3-fluorophenyl)-4-(3-(phenylethynyl)phenyl)oxazolidin-2-one] | > 7.00
7 | O=C1N[C@H](c2ccnc(C#Cc3ccccc3)n2)[C@@H](c2cc(F)ccc2F)O1 (racemic) [Example 270] | < 6.00
8 | C[C@]1(c2cncc(C#Cc3ccccc3)c2)NC(=O)O[C@H]1c1cc(F)ccc1F (racemic) [Example 405, (+/−)-5-(2,5-Difluorophenyl)-4-methyl-4-(5-(phenylethynyl)pyridin-3-yl)oxazolidin-2-one] | > 7.00
9 | O=C1N[C@H](c2cccc(C#Cc3ccccc3)n2)[C@@H](c2ccccc2)O1 (single isomer, unassigned) [Example 10] | > 7.00
10 | O=C1N[C@@H](c2cccc(C#Cc3ccccc3)n2)[C@H](c2ccccc2)O1 (single isomer, unassigned) [Example 11] | < 6.00
11 | O=C1N[C@@H](c2cccc(C#Cc3cccc(F)c3)n2)[C@H](c2ccccc2)O1 (single isomer, unassigned) [Example 13] | < 6.00
12 | O=C1N[C@H](c2cccc(C#Cc3ccccc3F)n2)[C@@H](c2ccccc2)O1 (single isomer, unassigned) [Example 14] | < 6.00
13 | O=C1N[C@@H](c2cccc(C#Cc3ccccc3F)n2)[C@H](c2ccccc2)O1 (single isomer, unassigned) [Example 15] | < 6.00
14 | O=C1N[C@H](c2cccc(C#Cc3ccc(F)cc3)n2)[C@@H](c2ccccc2)O1 (single isomer, unassigned) [Example 16] | > 7.00
15 | O=C1N[C@@H](c2cccc(C#Cc3ccc(F)cc3)n2)[C@H](c2ccccc2)O1 (single isomer, unassigned) [Example 17] | < 6.00
16 | O=C1N[C@H](c2cc(C#Cc3ccccc3)ccn2)[C@@H](c2ccccc2)O1 (single isomer, unassigned) [Example 18] | < 4.52
17 | O=C1N[C@@H](c2cc(C#Cc3ccccc3)ccn2)[C@H](c2ccccc2)O1 (single isomer, unassigned) [Example 19] | < 6.00
18 | O=C1N[C@H](c2cccc(C#Cc3ccccn3)n2)[C@@H](c2ccccc2)O1 (single isomer, unassigned) [Example 24] | < 6.00
19 | O=C1N[C@@H](c2cccc(C#Cc3ccccn3)n2)[C@H](c2ccccc2)O1 (single isomer, unassigned) [Example 25] | < 6.00
20 | O=C1N[C@@H](c2cncc(C#Cc3cncc(F)c3)c2)[C@H](c2ccc(F)cc2)O1 (single isomer, unassigned) [Example 44] | < 6.00
21 | O=C1N[C@H](c2cncc(C#Cc3cncc(F)c3)c2)[C@@H](c2ccc(F)cc2)O1 (single isomer, unassigned) [Example 45] | > 7.00 and 8.42
22 | O=C1N[C@H](c2cccc(C#Cc3ccccc3)c2)[C@@H](c2ccccc2)O1 (single isomer, unassigned) [Example 95] | > 7.00
23 | O=C1N[C@@H](c2cccc(C#Cc3ccccc3)c2)[C@H](c2ccccc2)O1 (single isomer, unassigned) [Example 96] | 6.00 to 7.00
24 | Cc1ccc([C@@H]2OC(=O)N[C@H]2c2cccc(C#Cc3ccccc3)c2)cc1C (single isomer, unassigned) [Example 102] | < 6.00
25 | O=C1N[C@H](c2cccc(C#Cc3ccccc3)c2)C(c2cccs2)O1 (single isomer, unassigned) [Example 104] | > 7.00
26 | O=C1N[C@@H](c2cccc(C#Cc3ccccc3)c2)[C@H](c2cccs2)O1 (single isomer, unassigned) [Example 105] | < 4.52
27 | O=C1N[C@H](c2cccc(C#Cc3ccccc3)c2)[C@@H](c2ccc(F)cc2)O1 (single isomer, unassigned) [Example 114] | > 7.00
28 | O=C1N[C@H](c2cccc(C#Cc3ccccc3)n2)[C@@H](c2ccc(F)cc2)O1 (single isomer, unassigned) [Example 135] | > 7.00 and 8.07

The next lines start with the values.

Row | pEC50 | Structure (SMILES)
29 | < 6.00 | O=C1N[C@H](c2cc(C#Cc3ccccc3)ncn2)[C@@H](c2cccc(F)c2)O1 (racemic) [Example 271]
30 | < 6.00 | O=C1N[C@H](c2nccc(C#Cc3ccccc3)n2)[C@@H](c2cccc(F)c2)O1 (racemic) [Example 272]
31 | 6.00 to 7.00 and 6.16 | O=C1N[C@H](c2cncc(C#Cc3ccccc3)c2)[C@H](c2ncco2)O1 (racemic) [Example 337, (±)-(4R,5R)-5-(Oxazol-2-yl)-4-(5-(phenylethynyl)pyridin-3-yl)oxazolidin-2-one]
32 | > 7.00 | O=C1N[C@@H](c2cccc(C#Cc3ccccc3)c2)[C@H](c2cccnc2)O1 (relative stereo) [Example 116, Trans-4-(3-(phenylethynyl)phenyl)-5-(pyridin-3-yl)oxazolidin-2-one]
33 | 6.00 to 7.00 and 6.55 | COc1cccc([C@@H]2OC(=O)N[C@@H]2c2cccc(C#Cc3ccccc3)c2)c1 (single isomer, unassigned) [Example 3]
34 | < 4.52 | COc1cccc([C@H]2OC(=O)N[C@H]2c2cccc(C#Cc3ccccc3)c2)c1 (single isomer, unassigned) [Example 4]
35 | > 7.00 | COc1cccc([C@H]2OC(=O)N[C@@H]2c2cccc(C#Cc3ccccc3)n2)c1 (single isomer, unassigned) [Example 5]
36 | < 6.00 | COc1cccc([C@@H]2OC(=O)N[C@H]2c2cccc(C#Cc3ccccc3)n2)c1 (single isomer, unassigned) [Example 6]
37 | 6.00 to 7.00 and 6.44 | O=C1N[C@H](c2cccc(C#Cc3cccnc3)n2)[C@@H](c2ccccc2)O1 (single isomer, unassigned) [Example 26]
38 | < 6.00 | O=C1N[C@@H](c2cccc(C#Cc3cccnc3)n2)[C@H](c2ccccc2)O1 (single isomer, unassigned) [Example 27]
39 | < 6.00 | COc1cccc([C@@H]2OC(=O)N[C@H]2c2cncc(C#Cc3ccccn3)c2)c1 (single isomer, unassigned) [Example 28]
40 | < 6.00 | COc1cccc([C@H]2OC(=O)N[C@@H]2c2cncc(C#Cc3ccccn3)c2)c1 (single isomer, unassigned) [Example 29]
41 | < 6.00 | COc1cccc([C@@H]2OC(=O)N[C@H]2c2cncc(C#Cc3csc(C)n3)c2)c1 (single isomer, unassigned) [Example 30]
42 | < 6.00 | COc1cccc([C@H]2OC(=O)N[C@@H]2c2cncc(C#Cc3csc(C)n3)c2)c1 (single isomer, unassigned) [Example 31]
43 | < 6.00 | COc1cccc([C@@H]2OC(=O)N[C@H]2c2cncc(C#Cc3ccccc3)c2)c1 (single isomer, unassigned) [Example 32]
44 | > 7.00 | COc1cccc([C@H]2OC(=O)N[C@@H]2c2cncc(C#Cc3ccccc3)c2)c1 (single isomer, unassigned) [Example 33]
45 | < 6.00 | COc1cccc([C@H]2OC(=O)N[C@@H]2c2ccnc(C#Cc3ccccc3)c2)c1 (single isomer, unassigned) [Example 36]
46 | > 7.00 | COc1cccc([C@@H]2OC(=O)N[C@H]2c2ccnc(C#Cc3ccccc3)c2)c1 (single isomer, unassigned) [Example 37]
47 | < 6.00 | O=C1N[C@H](c2cncc(C#Cc3ccccc3)c2)[C@@H](c2ccccc2)O1 (single isomer, unassigned) [Example 38]
48 | > 7.00 | O=C1N[C@@H](c2cncc(C#Cc3ccccc3)c2)[C@H](c2ccccc2)O1 (single isomer, unassigned) [Example 39]
49 | < 6.00 | O=C1N[C@@H](c2cncc(C#Cc3ccccc3)c2)[C@H](c2ccc(F)cc2)O1 (single isomer, unassigned) [Example 40]
50 | > 7.00 | O=C1N[C@H](c2cncc(C#Cc3ccccc3)c2)[C@@H](c2ccc(F)cc2)O1 (single isomer, unassigned) [Example 41]
51 | < 6.00 | O=C1N[C@@H](c2cncc(C#Cc3cccnc3)c2)[C@H](c2ccc(F)cc2)O1 (single isomer, unassigned) [Example 42]
52 | > 7.00 | O=C1N[C@H](c2cncc(C#Cc3cccnc3)c2)[C@@H](c2ccc(F)cc2)O1 (single isomer, unassigned) [Example 43]
